Results as given in publication PMC6801819, “Exogenous Iron Increases Fasciocidal Activity and Hepatocellular Toxicity of the Synthetic Endoperoxides OZ78 and MT04” (International Journal of Molecular Sciences, 2019).

Columns and labels:
adult F. hepatica = assay: In vitro/ex vivo adult worm viability assay; assay type: cell-based, Fasciola hepatica; conditions: iron or hemin with 1% DMSO, no drug, 48 h or 72 h
Experimental: The experiments were performed, as described previously. Adult F. hepatica were collected from bovine liver bile ducts obtained from the local slaughterhouse (Basel, Switzerland). After careful washing, a single adult worm was placed per well (6-well plate, Costar, MA, USA) containing 5.4 mL RPMI 1640 (Gibco, N.Y., USA), supplemented with 1% (v/v) antibiotics (50 µg/mL streptomycin and 50 U/mL penicillin), 1% (v/v) drug solution, […] Control worms were incubated in 1% (v/v) DMSO combined with iron or hemin. Experiments were conducted in triplicates and repeated once. Cultures were kept at 37 °C in an atmosphere of 5% CO2. The viabilities of treated and untreated worms were monitored at 0, 24, 48, and 72 h. Worms were examined by eye and/or using a dissecting microscope (20× lenses). The viability of adult flukes was scored using the following scale: 4: normal activity; movements were visible without a microscope, 3: reduced activities, 2: very weak activities detected only using microscopic magnification, and 1: death of worm (no movement observed for two min using a microscope).

HepG2 cells [1] = assay: Adenylate kinase leakage (membrane integrity test); assay type: cell-based, human
Experimental: (§1) Stock solutions of the drugs tested were prepared in DMSO 100% (v/v).
(§2) In viability assays, HepG2 cells were treated with 0.1% Triton-X or 0.1% DMSO for positive or negative control, respectively.
The assay was used according to the protocol supplied by the manufacturer.

HepG2 cells [2] = assay: Cellular ATP content (CellTiter-Glo); assay type: cell-based, human
Experimental: as §1, §2
To assess cellular ATP content, HepG2 cells were seeded in white-wall 96-well plates with a clear bottom (Nunc). One day after seeding, cells were treated with the respective drugs. […] Luminescence was measured using Tecan M200 Infinite Pro.

HepG2 cells [3] = assay: Cellular reactive oxygen species (DCF-DA); assay type: cell-based, human
Experimental: Stock solutions of the drugs tested were prepared in DMSO 100% (v/v). […] LC-MS measurements confirmed the stability of the compounds (data not shown). Treatments with AS, MT04, or OZ78 (100 or 500 µM) were performed either alone or in combination with 8% (v/v) hemin or FeCl2 solution for 24 h. The final iron concentration used was 122 µM (stock 1.5 mM) based on previous in vitro studies with F. hepatica. Dichlorodihydrofluorescein diacetate (DCF-DA) dissolved in DMSO was used to assess cellular formation of reactive oxygen species (ROS). HepG2 cells were seeded in a black-wall 96 well plate with a clear bottom as described above. Briefly, 30 min before treatment started, DCF-DA was added to the cells at a final concentration of 25 µM. DCF-DA was removed completely before the drugs were added. ROS was measured after 90 min and 24 h of drug exposure using a Tecan M200 Infinite Pro (excitation 485 nm, emission 535 nm).

Compound	viability of adult F. hepatica (adult F. hepatica)	cytotoxicity (AK release) (HepG2 cells [1])	impact on cellular ATP content (HepG2 cells [2])	increase in ROS compared to DMSO, factor (HepG2 cells [3])
[Cl][Fe][Cl] [Fe^2+, Fe(II)chloride]	slight reduction in viability	not cytotoxic	no impact on cellular ATP content	did not trigger ROS production
hemin [reference compound]	slight reduction in viability		no impact on cellular ATP content	
